Experimental data taken from patent US7223572B1, “Methylophilus methylotrophus having enhanced dihydrodipicolinate synthase and/or aspartokinase activity for L-amino acid production” (Ajinomoto Co., Inc., priority 1999, dated 2007).

Tested on: AK
Test: AK activity of cell-free extracts, with and without L-lysine (method of Stadtman)
Format: biochemical, Methylophilus methylotrophus
Conditions: L-lysine alone
Procedure: Cell-free extracts were prepared from the Methylophilus methylotrophus AS1 strain containing the RSFD80 plasmid (also referred to as “AS1/RSFD80” hereinafter) and the Methylophilus methylotrophus AS1 strain containing the pRS plasmid (also referred to as “AS1/pRS” hereinafter), and AK activity was measured. The cell-free extracts (crude enzyme solutions) were prepared as follows. The AS1/RSFD80 strain and AS1/pRS strain were each inoculated to 121 production medium of the above composition containing 20 mg/L of streptomycin, cultured at 37° C. for 34 hours with shaking, and then calcium carbonate was removed and cells were harvested.
The bacterial cells obtained as described above were washed with 0.2% KCl under a condition of 0° C., suspended in 20 mM potassium phosphate buffer (pH 7) containing 10 mM MgSO4, 0.8 M (NH4)2SO4 and 0.03 M β-mercaptoethanol, and disrupted by sonication (0° C., 200 W, 10 minutes). […]
The measurement of AK activity was performed in accordance with the method of Stadtman (Stadtman, E. R., Cohen, G. N., LeBras, G., and Robichon-Szulmajster, H., J. Biol. Chem., 236, 2033 (1961)). […] The reaction solution was centrifuged, and absorbance of the supernatant was measured at 540 nm. […] When the enzymatic activity was measured, L-lysine was added to the enzymatic reaction solution at various concentrations to examine degree of inhibition by L-lysine.

NCCCC[C@H](N)C(=O)O [L-lysine]
inhibition of AK originally retained by the AS1 strain: not inhibited
